Experimental data taken from ChEMBL document CHEMBL5244275, “Geminal Diheteroatomic Motifs: Some Applications of Acetals, Ketals, and Their Sulfur and Nitrogen Homologues in Medicinal Chemistry and Drug Design” (J Med Chem, 2021).
In brackets after ≈: the same amount, converted by molar mass. Numbered stars: 1 amine (or outer) side, 2 acyl side, 3 side chain; on linkers, the order of the positions; unused ones are H or OH. Bridge positions count the residues as written; N and C are the ends. Square brackets hold non-standard residues; d marks the D form. Peptide text beside a SMILES is read from it. * marks the point of attachment. Orn(4R-OH,5R-OH) = O=C([C@H](C[C@@H](O)[C@@H](O)N[*:3])N[*:1])[*:2]; Tetradecanoyl(10R,12S-Me2) = CC[C@H](C)C[C@H](C)CCCCCCCCC(=O)*; hTyr(3S-OH,4S-OH) = N[C@H](C(=O)O)[C@H](O)[C@@H](O)c1ccc(O)cc1; Gln(3R-OH) = NC(=O)C[C@@H](O)[C@H](N)C(=O)O; Pro(3S-OH) = O=C(O)[C@H]1NCC[C@@H]1O; Hyp = O=C(O)[C@@H]1C[C@@H](O)CN1

Key:
[1] = Aqueous stability of the compound assessed as acid-catalyzed decomposition by measuring rate constant; type: physicochemical; conditions: buffer
[2] = Stability of the compound at pH 1 assessed as half-life; type: physicochemical; conditions: buffer
Hepatitis C virus = test: Antiviral activity against Hepatitis C virus genotype 1a harboring NS5A Y93H mutant; type: functional, organism-based, Hepacivirus hominis
[3] = tested on: Human immunodeficiency virus 1; test: microbe, parasite or virus in culture; conditions: Human immunodeficiency virus 1, LAV
[4] = Oral bioavailability in human; type: ADME, organism-based; conditions: in vivo
[5] = Stability of the compound at pH 7.4 aqueous phosphate buffer assessed as half-life; type: physicochemical
[6] = Stability of the compound in 20% aqueous dioxane solution at 30 degreeC assessed as compound hydrolysis by measuring rate constant; type: physicochemical; conditions: buffer
Escherichia coli [7] = test: Inhibition of Escherichia coli beta-lactamase at 1 uM relative to control
[8] = Oral bioavailability in dog; type: ADME, organism-based, Canis lupus familiaris; conditions: in vivo
[9] = Oral bioavailability in rat; type: ADME, organism-based; conditions: in vivo
[10] = Cmax in rat plasma at 20 mg/kg, po; type: ADME, organism-based; design: dose 20 mg/kg, route po
Plasmodium falciparum = test: Antiplasmodial activity against Plasmodium falciparum FcM29 assessed as inhibition of plasmodial growth; type: functional, organism-based
[11] = Aqueous solubility of compound; type: physicochemical; conditions: aqueous (not further specified)
[12] = Inhibition of Leukotriene B4 production in human blood Polymorphonuclear neutrophil cells; type: functional, tissue-based
[13] = Stability of the compound at pH 8 assessed as compound hydrolysis by measuring half-life; type: physicochemical; conditions: buffer
[14] = molecular target: T1, Neutrophil elastase (Homo sapiens) (UniProt P08246); test: Time-dependent inhibition of human leukocyte elastase assessed as observed binding constant
T1 sequence (whole entry): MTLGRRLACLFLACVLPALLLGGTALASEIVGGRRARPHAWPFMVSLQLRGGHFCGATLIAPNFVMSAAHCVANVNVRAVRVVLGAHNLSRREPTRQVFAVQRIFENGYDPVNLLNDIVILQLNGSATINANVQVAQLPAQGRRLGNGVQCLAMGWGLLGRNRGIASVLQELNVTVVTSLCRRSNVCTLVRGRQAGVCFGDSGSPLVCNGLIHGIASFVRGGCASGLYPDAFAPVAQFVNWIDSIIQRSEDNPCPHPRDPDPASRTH

[15] = Stability of the compound assessed as acid hydrolysis by measuring half-life; type: physicochemical
[16] = Inhibition of Calcium channel (unknown origin); design: species or system Homo sapiens
Staphylococcus aureus = test: Antibacterial activity against Staphylococcus aureus 01A0785 assessed as inhibition of bacterial growth by microdilution method; type: functional
Escherichia coli [17] = test: Antibacterial activity against Escherichia coli 51A0150 assessed as inhibition of bacterial growth by microdilution method; type: functional
Pasteurella multocida = test: Antibacterial activity against Pasteurella multocida 59A0067 assessed as inhibition of bacterial growth by microdilution method; type: functional
Mus musculus = test: Antiinflammatory activity in LPS-induced Balb/c mouse model assessed as reduction in TNF-alpha release administered orally for 30 mins followed by LPS-stimulation and measured after 90 mins by ELISA analysis; type: functional; conditions: 2 h, route po, time 120 min
Candida albicans [18] = test: Fungicidal activity against Candida albicans; type: functional
Candida albicans [19] = test: Antifungal activity against Candida albicans GS; type: functional, organism-based
[20] = molecular target: Human immunodeficiency virus type 1 protease (Human immunodeficiency virus 1, UniProt Q72874); test: Inhibition of HIV-1 protease

O=[N+]([O-])c1ccc(C2OCCS2)cc1 (configuration not stated)
K [1]: 0.00048 min⁻¹

Nc1ccn([C@H]2C=C[C@@H](CO)O2)c(=O)n1
half-life [2]: 0.2 h

COC(=O)N[C@H](C(=O)N1CCC[C@H]1c1ncc(-c2ccc(-c3cc4cc(-c5cnc([C@@H]6CCCN6C(=O)[C@@H](NC(=O)OC)C(C)C)[nH]5)ccc4o3)cc2)[nH]1)C(C)C
EC50 (Hepatitis C virus): 27 nM

Nc1nc(=O)n([C@@H]2CS[C@H](CO)O2)cc1F [EMTRICITABINE]
EC50 [3]: 8 nM
bioavailability [4]: 60%

CCCCC[C@H](O)/C=C/[C@H]1O[C@@H]2O[C@@H]([C@H]2F)[C@@H]1C/C=C\CCCC(=O)O
half-life [5]: 480 h

CCOC(OCC)(c1ccccc1)c1ccccc1
K [6]: 4.3 10^-1/M/s

Cc1cn([C@H]2C=C[C@@H](CO)O2)c(=O)[nH]c1=O [STAVUDINE]
half-life [2]: 26 h

O=C(O)[C@H]1/C(=C/CO)O[C@@H]2CC(=O)N21
inhibition (Escherichia coli [7]): 81%

N#Cc1cc(-c2ccoc2)c2ccc(OCc3cccc(C4(O)CC5COC(C4)O5)n3)cc2c1 (configuration not stated)
bioavailability [8]: 73%
bioavailability [9]: 26%
Cmax [10]: 5 µM

CC1(C)COC2(CCC(N[C@H]3CC[C@H](Nc4ccnc5cc(Cl)ccc45)CC3)CC2)OO1 (some centres not stated)
IC50 (Plasmodium falciparum): 10 nM

CC(C)[C@H](N)C(=O)OCCOCn1cnc2c(=O)[nH]c(N)nc21 [VALACYCLOVIR]
bioavailability [4]: 54%
solubility [11]: 174 mg/mL (≈ 536000 µM)

O=c1ccn([C@H]2C=C[C@@H](CO)O2)c(=O)[nH]1
half-life [2]: 15 h

COc1ccc(C2OCCS2)cc1 (configuration not stated)
K [1]: 0.778 min⁻¹

CC(C)C1=C[C@H]2OC3(CCC(N[C@H]4CC[C@H](Nc5ccnc6cc(Cl)ccc56)CC4)CC3)OO[C@@]2(C)CC1 (some centres not stated)
IC50 (Plasmodium falciparum): 18 nM

O=C1OCc2c1cc1cc(OCc3cccc(C4(O)CC5COC(C4)O5)c3)ccc1c2-c1ccccc1 (configuration not stated)
IC50 [12]: 6 nM

CC[C@@H]1C(=O)N(C(C)=O)[C@H]1Oc1ccc(C(=O)O)cc1
half-life [13]: 8.6 h
K [14]: 6.7 10^3/M/s

Nc1ncnc2c1ncn2[C@@H]1O[C@H](CO)C[C@H]1F
half-life [15]: > 1 min

C[C@@H](O[C@H]1OCCN(Cc2n[nH]c(=O)[nH]2)[C@H]1c1ccc(F)cc1)c1cc(C(F)(F)F)cc(C(F)(F)F)c1 [APREPITANT]
IC50 [16]: > 1000 nM

CC[C@H]1OC(=O)[C@H](C)[C@@H](O[C@H]2C[C@@](C)(OC)[C@@H](O)[C@H](C)O2)[C@H](C)[C@@H](O[C@@H]2O[C@H](C)C[C@H](N(C)C)[C@H]2O)[C@](C)(O)C[C@@H](C)CN(C)[C@H](C)[C@@H](O)[C@]1(C)O [AZITHROMYCIN]
MIC (Staphylococcus aureus): 0.2 µg/mL (≈ 0.267 µM)
MIC (Escherichia coli [17]): 1.56 µg/mL (≈ 2.08 µM)
MIC (Pasteurella multocida): 0.1 µg/mL (≈ 0.134 µM)

C[S+]([O-])c1ccc(-c2nc(-c3ccncc3)c(-c3ccc(F)cc3)[nH]2)cc1 (configuration not stated) [SB-203580]
ED50 (Mus musculus): 10 mg/kg
bioavailability [9]: 10%

CC[C@H](C)C[C@H](C)CCCCCCCCC(=O)N[C@H]1C[C@@H](O)[C@@H](O)NC(=O)[C@@H]2[C@@H](O)CCN2C(=O)[C@H]([C@H](O)CC(N)=O)NC(=O)[C@H]([C@H](O)[C@@H](O)c2ccc(O)cc2)NC(=O)[C@@H]2C[C@@H](O)CN2C(=O)[C@H]([C@@H](C)O)NC1=O ({Tetradecanoyl(10R,12S-Me2)}-[Orn(4R-OH,5R-OH)]T[Hyp][hTyr(3S-OH,4S-OH)][Gln(3R-OH)][Pro(3S-OH)]; lactam 1-C)
MFC (Candida albicans [18]): 0.25 µg/mL (≈ 0.235 µM)
IC50 (Candida albicans [19]): 70 nM

Cc1ccc(C2(c3ccc(C)cc3)OCCO2)cc1
K [6]: 1.7 10^-1/M/s

CC(C)CN(C[C@@H](O)[C@H](Cc1ccccc1)NC(=O)O[C@H]1C2CO[C@H]3OCC1C3C2)S(=O)(=O)c1ccc2oc(NC3CC3)nc2c1 (some centres not stated)
IC50 [20]: 0.26 nM

CC[C@@H]1C(=O)N(C(C)=O)[C@H]1OC(C)=O (racemic)
half-life [13]: 2.4 h
K [14]: 4 10^3/M/s

COc1ccc(S(=O)(=O)N(CC(C)C)C[C@@H](O)[C@H](Cc2ccccc2)NC(=O)O[C@H]2CO[C@H]3O[C@@H]4OCC[C@@H]4[C@H]32)cc1
IC50 [20]: 1.8 nM

CC[C@H](C)C[C@H](C)CCCCCCCCC(=O)N[C@H]1C[C@@H](O)[C@@H](OCCN)NC(=O)[C@@H]2[C@@H](O)CCN2C(=O)[C@H]([C@H](O)CC(N)=O)NC(=O)[C@H]([C@H](O)[C@@H](O)c2ccc(O)cc2)NC(=O)[C@@H]2C[C@@H](O)CN2C(=O)[C@H]([C@@H](C)O)NC1=O
MFC (Candida albicans [18]): 0.25 µg/mL (≈ 0.226 µM)
IC50 (Candida albicans [19]): 10 nM
